“And” between values parts separate entries of the source, which are not always exact repeats. Equal entries are not always repeated. Where two headings read alike, the source gives them in different places.
Key:
JAK3 = target: T1, JAK3 (Homo sapiens, UniProt P52333); conditions: cited from earlier work
T1 sequence (P52333 1-1124): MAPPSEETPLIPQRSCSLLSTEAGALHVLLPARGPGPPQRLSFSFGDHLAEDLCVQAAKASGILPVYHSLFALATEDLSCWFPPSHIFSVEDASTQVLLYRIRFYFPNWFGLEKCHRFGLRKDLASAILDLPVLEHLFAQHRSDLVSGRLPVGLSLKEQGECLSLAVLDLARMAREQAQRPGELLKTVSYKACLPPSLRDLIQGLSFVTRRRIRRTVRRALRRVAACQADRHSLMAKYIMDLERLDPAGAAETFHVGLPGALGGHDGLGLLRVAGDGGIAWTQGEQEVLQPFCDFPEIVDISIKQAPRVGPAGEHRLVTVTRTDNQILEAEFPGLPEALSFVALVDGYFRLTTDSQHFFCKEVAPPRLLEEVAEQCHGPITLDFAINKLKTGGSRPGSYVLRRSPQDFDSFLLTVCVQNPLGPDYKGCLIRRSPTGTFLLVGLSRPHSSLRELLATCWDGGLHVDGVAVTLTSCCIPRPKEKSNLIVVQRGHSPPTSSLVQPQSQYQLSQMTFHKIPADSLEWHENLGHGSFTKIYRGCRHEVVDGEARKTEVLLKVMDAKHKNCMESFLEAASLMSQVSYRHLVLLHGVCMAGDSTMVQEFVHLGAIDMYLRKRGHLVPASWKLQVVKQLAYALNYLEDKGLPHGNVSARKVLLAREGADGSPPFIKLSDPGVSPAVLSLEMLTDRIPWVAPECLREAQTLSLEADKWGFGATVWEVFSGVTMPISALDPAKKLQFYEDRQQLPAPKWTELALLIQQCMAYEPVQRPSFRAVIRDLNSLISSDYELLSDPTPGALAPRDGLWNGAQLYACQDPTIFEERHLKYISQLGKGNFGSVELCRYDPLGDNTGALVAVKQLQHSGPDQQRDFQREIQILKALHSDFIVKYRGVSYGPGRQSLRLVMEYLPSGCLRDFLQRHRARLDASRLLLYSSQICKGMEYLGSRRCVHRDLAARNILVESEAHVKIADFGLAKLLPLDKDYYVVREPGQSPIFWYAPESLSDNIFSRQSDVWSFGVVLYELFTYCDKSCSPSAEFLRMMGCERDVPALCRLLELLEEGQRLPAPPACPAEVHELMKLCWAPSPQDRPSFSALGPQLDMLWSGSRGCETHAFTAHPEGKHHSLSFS

serum eosinophil count = assay: Phase 1 Part 3 serum (whole blood) differential eosinophil count; type: in vivo, human; conditions: 4 mg BID
Experimental: Whole blood hematology samples were collected prior to dosing in all patients at Day 1 (baseline) and on Day 10. Parameters including whole blood absolute and percent differential eosinophil count were determined and the resultant data was used to determine change from baseline, mean change from baseline, and mean placebo-corrected change from baseline (Compound I vs placebo).

[1] = Phase 1 Part 3 plasma pharmacokinetics (moderate to severe asthma); type: in vivo, human; conditions: 4 mg BID; for AUC(0-t) / AUC(0-inf) / AUC / Cmax: human, plasma, inhaled, 4 mg
Experimental: Part 3 involved the administration of a single dose regimen (4 mg BID), to subjects (17 active:6 placebo) with moderate to severe asthma treated with background ISC/LABA therapy, over a 10-day period. Blood samples were collected to enable the measurement of KN-002 concentrations in plasma. The resultant data was used to determine the pharmacokinetic parameters at Day 10 representing the Day on which the final dose was received.

TYK2 = TYK2 (Homo sapiens, UniProt P29597); conditions: cited from earlier work
[2] = 13-week inhalation toxicology study, NHP model; type: in vivo; conditions: in vivo, inhaled or intranasal, NHP; for AUC(0-t): monkey, read-out: AUC0-24
Experimental: Lactose/MgSt-based formulations of Compound I were evaluated during a 13-week inhalation toxicology study in an NHP model, and the corresponding results are presented in Table 16 below. […] The NOAEL was assigned to the highest dose study (7.9 mg/kg/day).

[3] = Phase 1 clinical trial adverse events summary (Part 1 healthy volunteers); type: in vivo, human; conditions: for Severe/serious TEAE, n (%) / Subjects with TEAE n, (%) / TEAE leading to discontinuation: Part 1 healthy volunteers
Experimental: A status summary of the phase 1 clinical trial recruitment is shown below in Table 18. Capsules filled with blend 2a were used to achieve a 0.6 mg target dose of Compound I (0.2 mg capsules×3). Capsules filled with blend 4 were used to achieve 2.0 mg, 4.0 mg, 6.0 mg, 8.0 mg, and 12.0 mg target doses of Compound I (2.0 mg capsule×1; 4.0 mg capsule×1; 2.0 mg capsules×3; 4.0 mg capsules×2; and 4.0 mg capsules×3, respectively). Twice daily dosing (BID) was achieved by repeating the preceding regime. For example, an 8.0 mg BID dosing regime is achieved by administering two doses of 4.0 mg capsules×2.

[4] = Day 10, Mean of active subjects (n = 6)
[5] = Day 10, individual active subjects 13026, 13027, 13038, 13073, 13095, 13097 (c1-c6)

Sequence of TYK2 (P29597 whole entry): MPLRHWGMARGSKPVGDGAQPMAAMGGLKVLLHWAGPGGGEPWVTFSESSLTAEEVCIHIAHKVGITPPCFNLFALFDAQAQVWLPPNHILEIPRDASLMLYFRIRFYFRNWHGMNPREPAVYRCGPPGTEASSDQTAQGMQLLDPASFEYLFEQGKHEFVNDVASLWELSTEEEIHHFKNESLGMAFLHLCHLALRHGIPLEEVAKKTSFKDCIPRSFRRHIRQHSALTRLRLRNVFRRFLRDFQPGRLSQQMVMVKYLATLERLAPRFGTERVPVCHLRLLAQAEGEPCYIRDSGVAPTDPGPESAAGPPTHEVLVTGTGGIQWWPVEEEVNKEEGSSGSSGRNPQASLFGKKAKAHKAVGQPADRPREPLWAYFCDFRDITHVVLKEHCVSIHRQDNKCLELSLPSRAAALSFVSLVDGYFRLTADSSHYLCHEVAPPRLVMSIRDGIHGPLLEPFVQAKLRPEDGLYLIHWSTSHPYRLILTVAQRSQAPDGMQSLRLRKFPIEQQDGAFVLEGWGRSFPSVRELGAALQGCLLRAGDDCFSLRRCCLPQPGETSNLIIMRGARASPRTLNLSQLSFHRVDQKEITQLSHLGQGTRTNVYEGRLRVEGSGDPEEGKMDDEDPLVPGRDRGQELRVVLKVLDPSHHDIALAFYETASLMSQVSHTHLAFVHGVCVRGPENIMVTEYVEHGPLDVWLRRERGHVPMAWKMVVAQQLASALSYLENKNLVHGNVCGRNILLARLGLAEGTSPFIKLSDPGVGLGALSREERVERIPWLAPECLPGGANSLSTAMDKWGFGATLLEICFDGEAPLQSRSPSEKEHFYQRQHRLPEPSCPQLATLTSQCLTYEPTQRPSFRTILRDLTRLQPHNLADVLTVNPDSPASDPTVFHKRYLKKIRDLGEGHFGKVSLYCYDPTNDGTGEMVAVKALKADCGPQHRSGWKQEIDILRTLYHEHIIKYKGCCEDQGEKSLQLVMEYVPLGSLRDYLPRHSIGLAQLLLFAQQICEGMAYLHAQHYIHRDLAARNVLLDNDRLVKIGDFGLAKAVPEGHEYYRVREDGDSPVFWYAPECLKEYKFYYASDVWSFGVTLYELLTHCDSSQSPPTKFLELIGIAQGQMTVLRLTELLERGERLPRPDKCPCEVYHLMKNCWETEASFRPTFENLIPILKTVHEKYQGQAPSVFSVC

For `Cn1c(=O)n([C@H]2CCCN(C(=O)CC#N)C2)c2nc(-c3cnn4ccccc34)ccc21` [Compound I, (S)-3-(3-(1-methyl-2-oxo-5-(pyrazolo[1,5-a]pyridine-3-yl)-1H-imidazo[4,5-b]pyridine-3(2H)-yl)piperidin-1-yl)-3-oxopropanenitrile], the “Inhibition of JAK3” value (JAK3) is listed as “potent inhibitor”, the “Active subjects with improvements (decreases) from baseline in whole blood eosinophil count” value (serum eosinophil count; Day 10 (5/6)) is listed as 83% and the “Serum absolute differential eosinophil count, % Change from screening” value (serum eosinophil count; [4]) is listed as −29%. For the same molecule, the “Serum absolute differential eosinophil count, Change from Day 1 pre-dose” value (serum eosinophil count; [4]) was −0.14 cells 10^9/L, the “Serum absolute differential eosinophil count, Mean placebo-corrected change” value (serum eosinophil count; Day 10, active (n = 6) vs placebo (n = 2)) was −0.11 cells 10^9/L and the “Serum absolute differential eosinophil count, % Change from screening” value (serum eosinophil count; [5]) was −45% and +54% and −43% and −4% and −32% and −74%. The “Serum absolute differential eosinophil count, Change from Day 1 pre-dose” value (serum eosinophil count; [5]) was −0.30 cells 10^9/L and 0.13 cells 10^9/L and −0.13 cells 10^9/L and −0.03 cells 10^9/L and −0.14 cells 10^9/L and −0.34 cells 10^9/L, the “Serum absolute differential eosinophil count, Day 10 level” value (serum eosinophil count; Mean of active subjects (n = 6)) was 0.34 cells 10^9/L and the “Serum absolute differential eosinophil count, Day 10 level” value (serum eosinophil count; individual active subjects 13026, 13027, 13038, 13073, 13095, 13097 (c1-c6)) was 0.36 cells 10^9/L and 0.37 cells 10^9/L and 0.17 cells 10^9/L and 0.74 cells 10^9/L and 0.30 cells 10^9/L and 0.12 cells 10^9/L. The “AUC0-24 hours Max” value ([1]; Day 10) was 689,494 pg · h/ml, the “AUC0-24 hours Min” value ([1]; Day 10) was 123,642 pg · h/ml and the “AUC0-last non-zero Max” value ([1]; Day 10) was 886,864 pg · h/ml. For the same molecule, the “AUC0-last non-zero Min” value ([1]; Day 10) was 133,118 pg · h/ml, the “AUC0-∞ Max” value ([1]; Day 10) was 887,512 pg · h/ml and the “AUC0-∞ Min” value ([1]; Day 10) was 134,831 pg · h/ml. For the same molecule, the “AUCover dosing interval Max” value ([1]; Day 10) was 501,523 pg · h/ml, the “AUCover dosing interval Min” value ([1]; Day 10) was 105,203 pg · h/ml and the “Cmax Max” value ([1]; Day 10) was 63,800 pg/ml. For the same molecule, the “Cmax Min” value ([1]; Day 10) was 15,900 pg/ml, the “Ctrough Geometric mean” value ([1]; Day 10) was 9,806 pg/ml and the “Ctrough Max” value ([1]; Day 10) was 23,000 pg/ml. The “Ctrough Mean” value ([1]; Day 10) was 11,153 pg/ml, the “Ctrough Min” value ([1]; Day 10) was 2,490 pg/ml and the AUC(0-t) ([1]; Day 10, read-out: AUC0-24 hours Geometric mean) was 334 ng·h/mL. It also gave an AUC(0-t) ([1]; Day 10, read-out: AUC0-24 hours Mean) of 365 ng·h/mL, an AUC(0-t) ([1]; Day 10, read-out: AUC0-last non-zero Geometric mean) of 393 ng·h/mL and an AUC(0-t) ([1]; Day 10, read-out: AUC0-last non-zero Mean) of 438 ng·h/mL. For the same molecule, the AUC(0-inf) ([1]; Day 10, read-out: AUC0-∞ Geometric mean) was 395 ng·h/mL, the AUC(0-inf) ([1]; Day 10, read-out: AUC0-∞ Mean) was 439 ng·h/mL and the AUC ([1]; Day 10, read-out: AUCover dosing interval Geometric mean) was 257 ng·h/mL. The AUC ([1]; Day 10, read-out: AUCover dosing interval Mean) was 278 ng·h/mL, the Cmax ([1]; Day 10, read-out: Cmax Geometric mean) was 35 ng/mL and the Cmax ([1]; Day 10, read-out: Cmax Mean) was 37.5 ng/mL. For the same molecule, the “Inhibition of TYK2” value (TYK2) was “potent inhibitor”, the AUC(0-t) ([2]; 0.9 mg/kg/day, inhaled 0.9 mg/kg/day, Day 1) was 203 ng·h/mL and the AUC(0-t) ([2]; 0.9 mg/kg/day, inhaled 0.9 mg/kg/day, Week 13) was 167 ng·h/mL. The AUC(0-t) ([2]; 2.7 mg/kg/day, inhaled 2.7 mg/kg/day, Day 1) was 408 ng·h/mL, the AUC(0-t) ([2]; 2.7 mg/kg/day, inhaled 2.7 mg/kg/day, Week 13) was 361 ng·h/mL and the AUC(0-t) ([2]; 8 mg/kg/day, inhaled 8.0 mg/kg/day, Day 1) was 903 ng·h/mL. The AUC(0-t) ([2]; 8 mg/kg/day, inhaled 8.0 mg/kg/day, Week 13) was 1160 ng·h/mL, the NOAEL at 13 weeks ([2]; non-human primate (NHP), 13-week inhalation, highest dose) was 7.9 mg/kg/day and the “Severe/serious TEAE, n (%)” value ([3]; 0.2 mg (n = 6)) was 0. The “Subjects with TEAE n, (%)” value ([3]; 0.2 mg (n = 6)) was 0, the “TEAE leading to discontinuation” value ([3]; 0.2 mg (n = 6)) was 0 and the “Severe/serious TEAE, n (%)” value ([3]; 0.6 mg (n = 7)) was 0. For the same molecule, the “Subjects with TEAE n, (%)” value ([3]; 0.6 mg (n = 7)) was 2 (29%), the “TEAE leading to discontinuation” value ([3]; 0.6 mg (n = 7)) was 1 and the “Severe/serious TEAE, n (%)” value ([3]; 2.0 mg (n = 6)) was 0. For the same molecule, the “Subjects with TEAE n, (%)” value ([3]; 2.0 mg (n = 6)) was 2 (33%), the “TEAE leading to discontinuation” value ([3]; 2.0 mg (n = 6)) was 0 and the “Severe/serious TEAE, n (%)” value ([3]; 4.0 mg (n = 6)) was 0. The “Subjects with TEAE n, (%)” value ([3]; 4.0 mg (n = 6)) was 0, the “TEAE leading to discontinuation” value ([3]; 4.0 mg (n = 6)) was 0 and the “Severe/serious TEAE, n (%)” value ([3]; 6.0 mg (n = 6)) was 0. The “Subjects with TEAE n, (%)” value ([3]; 6.0 mg (n = 6)) was 0, the “TEAE leading to discontinuation” value ([3]; 6.0 mg (n = 6)) was 0 and the “Severe/serious TEAE, n (%)” value ([3]; 12.0 mg (n = 6)) was 0. For the same molecule, the “Subjects with TEAE n, (%)” value ([3]; 12.0 mg (n = 6)) was 0, the “TEAE leading to discontinuation” value ([3]; 12.0 mg (n = 6)) was 0 and the “Changes in cardiovascular endpoints (ECG and vital signs)” value ([3]; phase 1 clinical trial) was “No treatment-related clinically relevant changes”. The “Severe or serious adverse events” value ([3]; phase 1 clinical trial) was “No severe or serious adverse events were observed” and the “Changes in hematology, biochemistry or urinalysis parameters including those influenced by JAK inhibition” value ([3]; phase 1 clinical trial, per investigator) was “No clinically relevant changes”.

From patent publication US20240261224A1, “FORMULATION OF A PAN-JAK INHIBITOR” (KINASET THERAPEUTICS, INC., priority 2022, published 2024)
